Results on two compounds are retold here after patent US20240246920A1, “TRIAZOLE DERIVATIVES WITH ANTIFUNGAL ACTIVITY” (King's College London, priority 2020, published 2024).

For assay [1], the system named is Aspergillus carbonarius ATCC 8740. Nature of the assay: Aspergillus panel MIC. The class given is cell-based. To be noted: Table 8. The procedure: (§1) Starter cultures of fungal strains to be tested were grown in 3 mL of RPMI 2% glucose media incubated at 37° C. with shaking at 200 rpm overnight. The culture media used was 900 mL H2O; 10.4 g RPMI 1640 (with L-glutamine and a pH indicator but without bicarbonate); 34.5 g MOPS and 18 g glucose. The pH of the media was adjusted to 7.0 with 1 M sodium hydroxide.
(§2) Solutions of the compound to be tested were prepared by dissolving the compound in DMSO and subsequently into media to the desired concentrations. 200 μL of compound solution was then added to the wells of the 96-well plate using a serial dilution method row-by row of the plate to give a compound concentration gradient across the plate of from 128 μg/mL to 0.25 μg/mL. The last two rows of each plate were control rows containing the culture media alone and the media plus fungi.
(§3) The fungi starter cultures were diluted 1:10 in water in cuvettes. This was then further diluted to an optical density (OD600) of 0.01 in media. 100 μL of the fungi was added to each well giving a starting concentration of fungus of 0.5-5×10^5/mL. One species of fungus was used on each plate. The plates were then held at 37° C. for 24 hours.
(§4) A plate reader was used to measure growth in each well at OD530 nm and the MIC was determined for each test compound. The MIC is defined as the lowest concentration giving rise to inhibition of ≥50% of that of the drug-free control well containing the fungus and media.
(§5) The compound of Example 2 (which corresponds to compound number 2) was tested against a panel of Aspergillus strains using a method analogous to that described above for the Candida Panel.

Assay [2] has as its system Aspergillus fulavus ATCC 204304. The experiment in a line: Aspergillus panel MIC. It is filed as cell-based. The note with it: Table 8. The procedure: as §1, §2, §3, §4, §5
Assay [3] has as its system Aspergillus fumigatus ATCC 1028. Nature of the assay: Aspergillus panel MIC. To be noted: Table 8. The class given is cell-based. The procedure:
as §1, §2, §3, §4, §5

Assay [4] concerns Aspergillus fumigatus ATCC 10894. The experiment in a line: Aspergillus panel MIC. It is filed as cell-based. The note with it: Table 8. The procedure: as §1, §2, §3, §4, §5
The subject of assay [5] is Aspergillus fumigatus ATCC 13073. Nature of the assay: Aspergillus panel MIC. The class given is cell-based. The note with it: Table 8. The procedure:
as §1, §2, §3, §4, §5

Assay [6] relates to Aspergillus fumigatus ATCC 16424. Nature of the assay: Aspergillus panel MIC. It is filed as cell-based. The note with it: Table 8. The procedure:
as §1, §2, §3, §4, §5

Assay [7] concerns Aspergillus fumigatus ATCC 204305. The experiment in a line: Aspergillus panel MIC. The class given is cell-based. To be noted: Table 8. The procedure: as §1, §2, §3, §4, §5
For the next assay, the system named is C. albicans NCPF3281. The experiment in a line: Candida panel MIC, serial dilution in 96-well plates. It is filed as cell-based, Candida albicans. The note with it: Candida albicans, NCPF3281; Table 4, common panel; 24 hours, ≥50% inhibition; read-out: MIC C. albicans NCPF3281. In a few lines: (§6)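 Overnight starter cultures were diluted to OD600 0.01 and added to serially diluted compound (128 to 0.25 μg/mL) in MOPS-buffered RPMI with 2% glucose, pH 7.0, giving 0.5-5×10^5 cells/mL. After 24 h at 37 °C, OD530 was measured and the ≥50% inhibition endpoint taken as MIC.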

The test system of the next assay is C. glabrata NCPF8018. The description is as above. It is filed as cell-based, Candida glabrata. To be noted: Nakaseomyces glabratus. In a few lines: (§7)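 MIC taken as lowest concentration inhibiting growth ≥50% relative to drug-free control, from OD530 after 24 hours at 37° C. Fungi at 0.5-5×10^5/mL were exposed to serially diluted compound in RPMI 1640/MOPS/2% glucose medium adjusted to pH 7.0.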

In a further assay the test system is C. krusei NCPF3876. Nature of the assay: microbe, parasite or virus in culture. The class given is cell-based, Candida krusei. The note with it: Pichia kudriavzevii. In a few lines:
as §7

Another assay deals with C. parapsilosis NCPF3209. Nature of the assay: microbe, parasite or virus in culture. It is filed as cell-based, Candida parapsilosis. The note with it: Lodderomyces parapsilosis. Put shortly: as §7
For another assay, the system named is Candida auris TDG2211. Nature of the assay: microbe, parasite or virus in culture. It is filed as cell-based. The note with it: Candidozyma auris, TDG2211; Table 4, extended panel; 24 hours, ≥50% inhibition; read-out: MIC Candida auris TDG2211. In a few lines: (§8)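 MIC = lowest concentration inhibiting growth ≥50% relative to drug-free control, read by OD530 nm after 24 h at 37° C. Medium: RPMI 1640/MOPS/2% glucose, pH 7.0. Inoculum 0.5-5×10^5/mL.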

The subject of the next assay is Candida auris TDG2506. Nature of the assay: microbe, parasite or virus in culture. The class given is cell-based. To be noted: Candidozyma auris, TDG2506; Table 4, extended panel; 24 hours, ≥50% inhibition; read-out: MIC Candida auris TDG2506. Put shortly: as §8
In another assay the test system is C. auris TDG1912. Nature of the assay: Candida panel MIC, serial dilution in 96-well plates. It is filed as cell-based. To be noted: Candidozyma auris, TDG1912; Table 4; 24 hours, ≥50% inhibition; read-out: MIC C. auris TDG1912. In a few lines: as §6
The next assay has as its system C. tropicalis NCPF8760. The assay is described as above. It is filed as cell-based. In a few lines: as §6
The test system of another assay is Candida auris TDG1102. The assay is described as above. It is filed as cell-based. To be noted: Candidozyma auris, TDG1102; Table 4, extended panel; 24 hours, ≥50% inhibition; read-out: MIC Candida auris TDG1102. In a few lines: as §6
For a further assay, the system named is Candida auris TDG2512. The description is as above. The class given is cell-based. To be noted: Candidozyma auris, TDG2512; Table 4, extended panel; 24 hours, ≥50% inhibition; read-out: MIC Candida auris TDG2512. In a few lines: as §6
For another assay, the system named is C. auris 8971. The description is as above. It is filed as cell-based, Candida auris. The note with it: Candidozyma auris, 8971; Table 4, extended panel; 24 hours, ≥50% inhibition; read-out: MIC C. auris 8971. In a few lines:
as §8

The subject of a further assay is C. auris 8977. The assay is described as above. It is filed as cell-based, Candida auris. To be noted: Candidozyma auris, 8977; Table 4, extended panel; 24 hours, ≥50% inhibition; read-out: MIC C. auris 8977. In a few lines:
as §8

In the next assay the test system is C. auris 8984. The assay is described as above. The note with it: Candidozyma auris, 8984; Table 4, extended panel; 24 hours, ≥50% inhibition; read-out: MIC C. auris 8984. The class given is cell-based, Candida auris. Put shortly: as §8
The next assay deals with panel of Candida species. The experiment in a line: Candida panel MIC, statements on the whole panel. The class given is cell-based. The note with it: in words. The procedure:
The minimum inhibitory concentration of test compounds were determined in a panel of Candida species (see Table 4 below), using the a serial dilution method in 96-well plates using the following protocol.
as §1, §2, §3, §4

In brackets after ≈: the same amount, converted by molar mass. Where two headings read alike, the source gives them in different places.

For `N#Cc1ccc(-c2ccc(NC3CCN(CC(O)(Cn4cncn4)c4ccc(F)cc4F)CC3)cc2)cc1` (stereo not shown) [Compound number 2, 4′-((1-(2-(2,4-difluorophenyl)-2-hydroxy-3-(1H-1,2,4-triazol-1-yl)propyl)piperidin-4-yl)amino)-[1,1′-biphenyl]-4-carbonitrile], the “Minimum inhibitory concentration Aspergillus carbonarius ATCC 8740” value in assay [1] is reported as 0.25. The “Minimum inhibitory concentration Aspergillus fulavus ATCC 204304” value in assay [2] was 0.5. The “Minimum inhibitory concentration Aspergillus fumigatus ATCC 1028” value in [3] amounted to 0.25. In addition, in assay [4], the “Minimum inhibitory concentration Aspergillus fumigatus ATCC 10894” value was 0.25. For the same compound, the “Minimum inhibitory concentration Aspergillus fumigatus ATCC 13073” value in assay [5] is at most 0.125. The “Minimum inhibitory concentration Aspergillus fumigatus ATCC 16424” value in assay [6] is at most 0.125. Further, the “Minimum inhibitory concentration Aspergillus fumigatus ATCC 204305” value in assay [7] is at most 0.125.

Take `Cc1ccc(-c2ccc(NC3CCN(CC(O)(Cn4cncn4)c4ccc(F)cc4F)CC3)cc2)cc1` (stereo not shown) [Example 3, 2-(2,4-Difluorophenyl)-1-(4-((4′-methyl-[1,1′-biphenyl]-4-yl)amino)piperidin-1-yl)-3-(1H-1,2,4-triazol-1-yl)propan-2-ol]: the MIC was at most 0.98 ng/mL in the assay on C. albicans NCPF3281; 125 ng/mL (≈ 0.248 µM) in the assay with C. glabrata NCPF8018 (NCPF8018, read-out: MIC C. Glabrata NCPF8018); 125 ng/mL (≈ 0.248 µM) with C. glabrata NCPF8018 (NCPF8018, Table 4, common panel, 24 hours, ≥50% inhibition, read-out: MIC C. glabrata NCPF8018); 4 to 16 ng/mL (≈ 0.00794 to 0.0318 µM) in the assay on C. krusei NCPF3876 (NCPF3876, read-out: MIC C. Krusei NCPF3876); 4 to 16 ng/mL (≈ 0.00794 to 0.0318 µM) with C. krusei NCPF3876 (NCPF3876, Table 4, common panel, 24 hours, ≥50% inhibition, read-out: MIC C. krusei NCPF3876); 4 ng/mL (≈ 0.00794 µM) in the assay on C. parapsilosis NCPF3209 (NCPF3209, read-out: MIC C. Parapsilosis NCPF3209). Further, the MIC is 4 ng/mL (≈ 0.00794 µM) in the assay with C. parapsilosis NCPF3209 (NCPF3209, Table 4, common panel, 24 hours, ≥50% inhibition, read-out: MIC C. parapsilosis NCPF3209); 6 ng/mL (≈ 0.0119 µM) in the assay with Candida auris TDG2211; 6 ng/mL (≈ 0.0119 µM) in the assay with Candida auris TDG2506; 8 to 60 ng/mL (≈ 0.0159 to 0.119 µM) with C. auris TDG1912; 15 ng/mL (≈ 0.0298 µM) in the assay on C. tropicalis NCPF8760 (NCPF8760, Table 4, common panel, 24 hours, ≥50% inhibition, read-out: MIC C. tropicalis NCPF8760); 15 ng/mL (≈ 0.0298 µM) in the assay on C. tropicalis NCPF8760 (NCPF8760, read-out: MIC C. Tropicalis NCPF8760). Besides, the MIC with Candida auris TDG1102 was at most 3 ng/mL; in the assay on Candida auris TDG2512, at most 3 ng/mL; with C. auris 8971, 6 ng/mL (≈ 0.0119 µM); in the assay with C. auris 8977, 6 ng/mL (≈ 0.0119 µM); with C. auris 8984 it was 6 ng/mL (≈ 0.0119 µM). For the same compound, in the assay with panel of Candida species, the “Activity against Candida auris including resistant strains” value is listed as “highly active”.
